Experimental findings from patent publication US10227357B2, “Compounds and methods for kinase modulation, and indications therefor” (Plexxikon Inc., priority 2012, dated 2019) are described below.

SMILES strings stand for the structures.

In the assay the target is T1, c-kit mutant D816V (Homo sapiens, UniProt P10721, D816V/DEL694-753).
T1 construct: residues 551-934, kinase insertion domain residues 694-753 deleted; 6x-histidine (N); made in house; host or cells: E. coli Arctic Express (DE3) RIL (Stratagene)
T1 sequence (P10721 with tags, fused parts or gaps DEL694-753/D816V): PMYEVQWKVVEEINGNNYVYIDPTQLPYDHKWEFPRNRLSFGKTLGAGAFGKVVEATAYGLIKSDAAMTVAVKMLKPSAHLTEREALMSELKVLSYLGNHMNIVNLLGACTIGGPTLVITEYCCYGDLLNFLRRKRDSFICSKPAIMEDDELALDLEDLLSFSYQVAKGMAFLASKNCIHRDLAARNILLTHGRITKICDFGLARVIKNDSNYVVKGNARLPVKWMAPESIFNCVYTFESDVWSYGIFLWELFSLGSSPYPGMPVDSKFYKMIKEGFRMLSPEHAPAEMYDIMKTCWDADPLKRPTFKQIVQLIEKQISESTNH
As to the kind of experiment: c-Kit mutant D816V biochemical assay, AlphaScreen. The following applies: c-kit D816V biochemical inhibitory activity; read-out: Biochemical activity (IC50 μM) Kit D816V. The method in brief:
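Purified His-tagged c-Kit D816V (E. coli-expressed) assayed in 25 mM HEPES pH 7.2 with Mg/Mn, 5% DMSO and 10 μM ATP, 30 min at room temperature, 8-point 1:3 dilutions. Phosphorylation detected by AlphaScreen with streptavidin donor and PY20 acceptor beads; IC50 from signal versus concentration.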

The IC50 is the concentration needed to halve the response being measured. Turning to `CCCn1cc(S(=O)(=O)NC2CCN(c3ncnc4[nH]c(-c5cnn(C)c5)cc34)CC2)cn1` [P-0484, N-[1-[6-(1-methylpyrazol-4-yl)-7H-pyrrolo[2,3-d]pyrimidin-4-yl]-4-piperidyl]-1-propyl-pyrazole-4-sulfonamide], the IC50 fell in the range of 1 to 10 µM.

Turning to `Cn1cc(-c2cc3c(N4CCC(NS(=O)(=O)c5ccc(F)cc5)CC4)ncnc3[nH]2)cn1` [P-0490, 4-fluoro-N-[1-[6-(1-methylpyrazol-4-yl)-7H-pyrrolo[2,3-d]pyrimidin-4-yl]-4-piperidyl]benzenesulfonamide], the 50% inhibitory concentration (IC50) was in the range of 1 to 10 µM.

Regarding `Cn1cc(-c2cc3c(N4CCC(NS(=O)(=O)c5ccccc5OC(F)(F)F)CC4)ncnc3[nH]2)cn1` [P-0493, N-[1-[6-(1-methylpyrazol-4-yl)-7H-pyrrolo[2,3-d]pyrimidin-4-yl]-4-piperidyl]-2-(trifluoromethoxy)benzenesulfonamide], the IC50 was 10 to 200 µM.

Consider `COc1ccc(S(=O)(=O)NC2CCN(c3ncnc4[nH]c(-c5cnn(C)c5)cc34)CC2)cc1` [P-0496, 4-methoxy-N-[1-[6-(1-methylpyrazol-4-yl)-7H-pyrrolo[2,3-d]pyrimidin-4-yl]-4-piperidyl]benzenesulfonamide], for which the IC50 was 0.0001 to 1 µM.

`Cn1cc(-c2cc3c(N4CCC(NS(=O)(=O)c5ccc(OC(F)(F)F)cc5)CC4)ncnc3[nH]2)cn1` [P-0497, N-[1-[6-(1-methylpyrazol-4-yl)-7H-pyrrolo[2,3-d]pyrimidin-4-yl]-4-piperidyl]-4-(trifluoromethoxy)benzenesulfonamide]: the IC50 lay within 1 to 10 µM.

Take `O=S(=O)(NC1CCN(c2ncnc3[nH]c(-c4ccc(Cl)cc4)cc23)CC1)c1cccc(OC(F)(F)F)c1` [P-0499, N-[1-[6-(4-chlorophenyl)-7H-pyrrolo[2,3-d]pyrimidin-4-yl]-4-piperidyl]-3-(trifluoromethoxy)benzenesulfonamide]: the IC50 is 1 to 10 µM.

Take `Cn1cc(-c2cc3c(N4CCC(NS(=O)(=O)c5cccc(OC(F)(F)F)c5)CC4)ncnc3[nH]2)cn1` [P-0500, N-[1-[6-(1-methylpyrazol-4-yl)-7H-pyrrolo[2,3-d]pyrimidin-4-yl]-4-piperidyl]-3-(trifluoromethoxy)benzenesulfonamide]: the IC50 fell in the range of 10 to 200 µM.

As to `O=C(NCc1ccc(F)cc1)NC1CCN(c2ncnc3[nH]ccc23)CC1` [P-0509, 1-[(4-fluorophenyl)methyl]-3-[1-(7H-pyrrolo[2,3-d]pyrimidin-4-yl)-4-piperidyl]urea], the half-maximal inhibitory concentration (IC50) was 10 to 200 µM.

With `O=C(NCCc1ccc(F)cc1)NC1CCN(c2ncnc3[nH]ccc23)CC1` [P-0511, 1-[2-(4-fluorophenyl)ethyl]-3-[1-(7H-pyrrolo[2,3-d]pyrimidin-4-yl)-4-piperidyl]urea], the IC50 lay within 10 to 200 µM.

As to `O=C(Nc1ccc(F)c(Cl)c1)NC1CCN(c2ncnc3[nH]ccc23)CC1` [P-0512, 1-(3-chloro-4-fluoro-phenyl)-3-[1-(7H-pyrrolo[2,3-d]pyrimidin-4-yl)-4-piperidyl]urea], the IC50 is 10 to 200 µM.

Consider `O=C(Nc1ccc(OC(F)(F)F)cc1)NC1CCN(c2ncnc3[nH]ccc23)CC1` [P-0513, 1-[1-(7H-pyrrolo[2,3-d]pyrimidin-4-yl)-4-piperidyl]-3-[4-(trifluoromethoxy)phenyl]urea], for which the IC50 was in the range of 10 to 200 µM.

As for `O=C(Nc1ccc(C(F)(F)F)cc1)NC1CCN(c2ncnc3[nH]ccc23)CC1` [P-0514, 1-[1-(7H-pyrrolo[2,3-d]pyrimidin-4-yl)-4-piperidyl]-3-[4-(trifluoromethyl)phenyl]urea], the IC50 lay within 10 to 200 µM.

`O=C(Nc1ccc(F)cc1)N1CC2CCC1CN2c1ncnc2cc(-c3ccc(F)cc3)sc12` (centres unmarked) [P-0546, N-(4-fluorophenyl)-5-[6-(4-fluorophenyl)thieno[3,2-d]pyrimidin-4-yl]-2,5-diazabicyclo[2.2.2]octane-2-carboxamide]: the IC50 lay within 1 to 10 µM.

In the case of `COc1cccc(CNC(=O)N2CC3CCC2CN3c2ncnc3cc(-c4ccc(F)cc4)sc23)c1` (centres unmarked) [P-0547, 5-[6-(4-fluorophenyl)thieno[3,2-d]pyrimidin-4-yl]-N-[(3-methoxyphenyl)methyl]-2,5-diazabicyclo[2.2.2]octane-2-carboxamide], the IC50 fell in the range of 0.0001 to 1 µM.

Turning to `COc1cccc([C@H](C)NC(=O)N2CC3CCC(C2)N3c2ncnc3cc(-c4ccc(F)cc4)sc23)c1` [P-0550, 8-[6-(4-fluorophenyl)thieno[3,2-d]pyrimidin-4-yl]-N-[(1S)-1-(3-methoxyphenyl)ethyl]-3,8-diazabicyclo[3.2.1]octane-3-carboxamide], the IC50 was 1 to 10 µM.

Take `COc1cccc(CNC(=O)N2CC3CCC(C2)N3c2ncnc3cc(-c4ccc(F)cc4)sc23)c1` [P-0551, 8-[6-(4-fluorophenyl)thieno[3,2-d]pyrimidin-4-yl]-N-[(3-methoxyphenyl)methyl]-3,8-diazabicyclo[3.2.1]octane-3-carboxamide]: the IC50 lay within 1 to 10 µM.

With `C[C@H](NC(=O)N1CCN(c2ncnc3cc(-c4ccc(F)cc4)sc23)CC1(C)C)c1cccc(F)c1` [P-0578, N-[(1S)-1-(3-fluorophenyl)ethyl]-4-[6-(4-fluorophenyl)thieno[3,2-d]pyrimidin-4-yl]-2,2-dimethyl-piperazine-1-carboxamide], the IC50 is 1 to 10 µM.

`C[C@H](NC(=O)N1CCN(c2ncnc3cc(Br)sc23)CC1)c1ccc(F)cc1` [P-0597, 4-(6-bromothieno[3,2-d]pyrimidin-4-yl)-N-[(1S)-1-(4-fluorophenyl)ethyl]piperazine-1-carboxamide]: the IC50 lay in the range of 1 to 10 µM.

As to `C[C@H](NC(=O)N1CCN(c2ncnc3cc(-c4ccc(F)cc4)sc23)C[C@H]1C)c1ccc(F)cc1` [P-0601, (2R)-N-[(1S)-1-(4-fluorophenyl)ethyl]-4-[6-(4-fluorophenyl)thieno[3,2-d]pyrimidin-4-yl]-2-methyl-piperazine-1-carboxamide], the IC50 was in the range of 1 to 10 µM.

As to `O=C(NCc1ccccc1)N1CCN(c2ncnc3cc(Br)sc23)CC1` [P-0629, N-benzyl-4-(6-bromothieno[3,2-d]pyrimidin-4-yl)piperazine-1-carboxamide], the IC50 was in the range of 10 to 200 µM.

With `CCS(=O)(=O)Nc1ccc(-c2ncnc3cc(-c4ccc(F)cc4)sc23)cc1` [P-0630, N-[4-[6-(4-fluorophenyl)thieno[3,2-d]pyrimidin-4-yl]phenyl]ethanesulfonamide], the IC50 was 1 to 10 µM.

As to `CC(=O)Nc1ccc(-c2ncnc3cc(-c4ccc(F)cc4)sc23)cc1` [P-0632, N-[4-[6-(4-fluorophenyl)thieno[3,2-d]pyrimidin-4-yl]phenyl]acetamide], the IC50 fell in the range of 10 to 200 µM.

Turning to `Nc1ccc(-c2ncnc3cc(-c4ccc(F)cc4)sc23)cc1` [P-0634, 4-[6-(4-fluorophenyl)thieno[3,2-d]pyrimidin-4-yl]aniline], the IC50 lay in the range of 1 to 10 µM.

Turning to `O=S(=O)(NCc1ccccc1)c1ccc(-c2ncnc3cc(-c4ccc(F)cc4)sc23)cc1` [P-0635, N-benzyl-4-[6-(4-fluorophenyl)thieno[3,2-d]pyrimidin-4-yl]benzenesulfonamide], the IC50 is 0.0001 to 1 µM.

Consider `Cc1ccc(S(=O)(=O)Nc2ccc(-c3ncnc4cc(-c5ccc(F)cc5)sc34)cc2)cc1` [P-0636, N-[4-[6-(4-fluorophenyl)thieno[3,2-d]pyrimidin-4-yl]phenyl]-4-methyl-benzenesulfonamide], for which the IC50 was 0.0001 to 1 µM.

Regarding `O=C(Nc1ccc(F)cc1)N1CCN(c2ncnc3ccsc23)CC1` [P-0640, N-(4-fluorophenyl)-4-thieno[3,2-d]pyrimidin-4-yl-piperazine-1-carboxamide], the IC50 fell in the range of 0.0001 to 1 µM.
